According to patent USRE38167E1, “Weight reduction method for cats and other pets” (International Flora Technologies Ltd, priority 1996, dated 2003):

Assay: Cat free-choice feeding study: daily food intake
Format: in vivo
Details: overweight cats
Description: All feeding studies were conducted from Feb. 26, 1998 to Sep. 17, 1998 at Summit Ridge Farms, Susquehanna, Pa. All were adult domestic short-haired cats. Most were quite old, as they had been in the colony 3 to 14 years and were thought to have been 1 to 4 years of age when they were obtained (Table 11). Just before beginning the study, all cats were given a thorough physical examination by a veterinarian. […] Each cat's current and estimated optimum weight were determined during this exam. […] All cats were housed individually with 12 hr light and dark cycles, and at a temperature of 60 to 85° F. and humidity of 30 to 70%. Food bowls, water bowls and litter boxes were emptied and sanitized daily. Water and the diet being fed were always available for free choice consumption except the night before the cats were to be weighed, when food bowls were removed. The amount of diet consumed was recorded, diet uneaten discarded and fresh diet fed daily. Weekly, following an overnight (14-hr) fast, each cat was weighed. Each cat was initially fed the non-jojoba containing diet FC-0 for 4 weeks, or until it was 14% or more over its estimated optimum weight, at which time it was fed either the diet containing 4% (FC-2) or 8% (FC-3) jojoba. Cats whose weight decreased by more than 4.6% in 1 week, or 6% in 2 weeks, were changed to the next lower jojoba-containing diet. […] When a cat was within 2.0% of its optimum weight, it was changed to a lower jojoba-containing diet; either that containing 2% or 4% (FC-1 or FC-2). If optimum body weight wasn't maintained when this diet was fed, the cat was changed to a higher jojoba-containing diet if it had gained weight and a lower jojoba-containing diet if it had lost weight. When the cat's weight had been maintained within 4% of its optimum for 4 weeks while eating the same diet, it was given a thorough physical exam by a veterinarian and removed from the study.

SMILES: CO[C@H]1[C@@H](OC)C[C@@H](O[C@@H]2O[C@H](CO)[C@@H](O)[C@H](O)[C@H]2O)/C(=C\C#N)[C@@H]1O [Simmondsin, simmondsin]
- Percent Decrease in Food Intake (0.12% bioactive simmondsin activity in diet): 17.8%
- Percent Decrease in Food Intake (0.24% bioactive simmondsin activity in diet): 30.7%
- Percent Decrease in Food Intake (0.49% bioactive simmondsin activity in diet): 45.9%
- Percent Decrease in Food Intake (0.73% bioactive simmondsin activity in diet): 49.2%
